Test results published in US11896573B2, “Pharmaceutical compositions and pharmacokinetics of a gamma-hydroxybutyric acid derivative” (priority 2020, dated 2024).

Experiment: Multiple ascending dose study, plasma pharmacokinetics of Compound (1) and GHB
Assay type: in vivo, human
Experimental: The plasma concentrations of Compound (1) and GHB in plasma in healthy human subjects were measured using liquid chromatography tandem mass-spectroscopy and evaluated using PHOENIX™ WINNONLIN® version 8.1 (Pharsight Corporation, USA) and MICROSOFT® EXCEL® (Microsoft Corporation, USA).
All randomized subjects who received Compound (1), with available pharmacokinetic (PK) data and without relevant deviations interfering with the PK evaluations, were included. Subjects who received only placebo were excluded from the PK population. In addition, the PK population was used for the summaries and analyses of all PK data.
A multiple ascending dose study was undertaken to evaluate the pharmacokinetics of multiple doses of Compound (1) in 3 cohorts of healthy subjects (with 8 subjects/cohort). Within each cohort, the subjects were randomized to receive Compound (1) or placebo at a ratio of 6:2 (active: placebo) for 7 days (or up to 9 days if the cohort included a titration period).
After fasting for at least 3 hours following a standard meal, subjects were randomized on Day 1 and the first dose of study drug (either target dose or titration dose) was administered. The first cohort of subjects (Cohort 8) received the second dose administration at approximately four hours after receiving the first dose. The subsequent […] cohorts (Cohorts 9 and 10) received only one dose per day.
For the first cohort (Cohort 8), the dose used was 6.0 g divided into two equal doses four hours apart for 7 days starting from Day 4 “Dose Day 1” to Day 10 “Dose Day 7”. Subsequent Cohorts 9, 10 received a single daily dose of 4.5 g and 6.0 g during the titration period (Day 1 for Cohort 9, Day 1 and Day 2 for Cohort 10, and after a titration period for 7 days starting from Day 4 “Dose Day 1” to Day 10 “Dose Day 7”. Cohort 11 was not conducted due to API availability.

[1] = Cohort 8 (6.0 g/day divided into equal 2 doses), Dosing Day 4
[2] = Cohort 8 (6.0 g/day divided into equal 2 doses), Dosing Day 10
[3] = Cohort 9 (4.5 g/day in a single dose), Dosing Day 4
[4] = Cohort 9 (4.5 g/day in a single dose), Dosing Day 10
[5] = Cohort 10 (6.0 g/day in a single dose), Dosing Day 4

SMILES: CC(C)[C@H](N)C(=O)OCCCC(=O)O [Compound (1), 4-((L-valyl)oxy)butanoic acid]
- Compound (1) CL/F, Max [1]: 597 L/h
- Compound (1) CL/F, Mean [1]: 431 L/h
- Compound (1) CL/F, Median [1]: 405 L/h
- Compound (1) CL/F, Min [1]: 315 L/h
- Compound (1) plasma AUC0-inf, Max [1]: 19100 ng·h/mL
- Compound (1) plasma AUC0-inf, Min [1]: 10100 ng·h/mL
- Compound (1) plasma AUC0-tlast, Max [1]: 19000 ng·h/mL
- Compound (1) plasma AUC0-tlast, Min [1]: 10000 ng·h/mL
- Compound (1) plasma Cmax, Max [1]: 16700 ng/mL
- Compound (1) plasma Cmax, Min [1]: 9600 ng/mL
- Compound (1) plasma T1/2, Max [1]: 112 min
- Compound (1) plasma T1/2, Min [1]: 13.2 min
- Compound (1) plasma Tmax, Max [1]: 270 min
- Compound (1) CL/F, Max [2]: 569 L/h
- Compound (1) CL/F, Mean [2]: 430 L/h
- Compound (1) CL/F, Median [2]: 430 L/h
- Compound (1) CL/F, Min [2]: 280 L/h
- Compound (1) plasma AUC0-inf, Max [2]: 21500 ng·h/mL
- Compound (1) plasma AUC0-inf, Min [2]: 10700 ng·h/mL
- Compound (1) plasma AUC0-tlast, Max [2]: 21400 ng·h/mL
- Compound (1) plasma AUC0-tlast, Min [2]: 10500 ng·h/mL
- Compound (1) plasma Cmax, Max [2]: 17000 ng/mL
- Compound (1) plasma Cmax, Min [2]: 8700 ng/mL
- Compound (1) plasma T1/2, Max [2]: 31.2 min
- Compound (1) plasma T1/2, Min [2]: 14.4 min
- Compound (1) plasma Tmax, Max [2]: 285 min
- Compound (1) CL/F, Max [3]: 406 L/h
- Compound (1) CL/F, Mean [3]: 378 L/h
- Compound (1) CL/F, Median [3]: 382 L/h
- Compound (1) CL/F, Min [3]: 338 L/h
- Compound (1) plasma AUC0-inf, Max [3]: 13300 ng·h/mL
- Compound (1) plasma AUC0-inf, Min [3]: 11100 ng·h/mL
- Compound (1) plasma AUC0-tlast, Max [3]: 13200 ng·h/mL
- Compound (1) plasma AUC0-tlast, Min [3]: 8300 ng·h/mL
- Compound (1) plasma Cmax, Max [3]: 17800 ng/mL
- Compound (1) plasma Cmax, Min [3]: 10500 ng/mL
- Compound (1) plasma T1/2, Max [3]: 40.8 min
- Compound (1) plasma T1/2, Min [3]: 16.8 min
- Compound (1) CL/F, Max [4]: 488 L/h
- Compound (1) CL/F, Mean [4]: 423 L/h
- Compound (1) CL/F, Median [4]: 443 L/h
- Compound (1) CL/F, Min [4]: 323 L/h
- Compound (1) plasma AUC0-inf, Max [4]: 13900 ng·h/mL
- Compound (1) plasma AUC0-inf, Min [4]: 9200 ng·h/mL
- Compound (1) plasma AUC0-tlast, Max [4]: 13800 ng·h/mL
- Compound (1) plasma AUC0-tlast, Min [4]: 9100 ng·h/mL
- Compound (1) plasma Cmax, Max [4]: 17800 ng/mL
- Compound (1) plasma Cmax, Min [4]: 9300 ng/mL
- Compound (1) plasma T1/2, Max [4]: 50.4 min
- Compound (1) plasma T1/2, Min [4]: 22.2 min
- Compound (1) CL/F, Max [5]: 684 L/h
- Compound (1) CL/F, Mean [5]: 390 L/h
- Compound (1) CL/F, Median [5]: 316 L/h
- Compound (1) CL/F, Min [5]: 265 L/h
- Compound (1) plasma AUC0-inf, Max [5]: 22700 ng·h/mL
- Compound (1) plasma AUC0-inf, Min [5]: 8800 ng·h/mL
- Compound (1) plasma AUC0-tlast, Max [5]: 22600 ng·h/mL
- Compound (1) plasma AUC0-tlast, Min [5]: 8700 ng·h/mL
- Compound (1) plasma Cmax, Max [5]: 28000 ng/mL
- Compound (1) plasma Cmax, Min [5]: 10500 ng/mL
- Compound (1) plasma T1/2, Max [5]: 30.6 min
- Compound (1) plasma T1/2, Min [5]: 20.4 min
